Laboratory results as given in article PMC7321114, “Anion Inhibition Studies of the Beta-Carbonic Anhydrase from Escherichia coli” (Molecules, 2020).

Molecular target: T1, CynT2 (Escherichia coli, UniProt P61517)
T1 construct: gene can; full-length synthetic gene, 220 residues, no signal peptide, N-terminal His6 fusion (pET100D-Topo), expressed in E. coli BL21(DE3) codon plus, about 29 kDa subunit, tag removal not mentioned
Test: stopped-flow CO2 hydration assay
Type: biochemical
Conditions: CO2 substrate 1.7-17 mM, pH 8.3, 20 mM Tris, 20 mM NaClO4, 15 min preincubation; read-out: KI (mM) ^1 / CynT2

T1 sequence (P61517 whole entry, the tested form may be a part): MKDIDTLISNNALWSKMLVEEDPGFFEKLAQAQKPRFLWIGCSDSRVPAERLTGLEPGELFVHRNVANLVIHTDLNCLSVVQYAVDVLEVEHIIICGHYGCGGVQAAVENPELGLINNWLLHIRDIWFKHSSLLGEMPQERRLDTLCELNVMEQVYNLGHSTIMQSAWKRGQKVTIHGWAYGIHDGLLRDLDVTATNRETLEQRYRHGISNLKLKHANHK

**Q.** For F[P-](F)(F)(F)(F)F [PF6^−], which Ki is on record?
**A.** > 10 mM

**Q.** With OB1OB2OB(O)OB(O1)O2 [B4O7^2−] as the compound, how does the Ki read?
**A.** 0.25 mM

Same assay, conditions: read-out: KI (mM) ^1 / CynT2

**Q.** How did the Ki turn out when Br [Br^−] was run?
**A.** 3.8 mM

**Q.** CCN(CC)C(=S)S [EtNCS2^−] was tested. Which Ki did it give?
**A.** 0.084 mM

**Q.** With F [F^−] as the compound, how does the Ki read?
**A.** 9.4 mM

**Q.** For Cl [Cl^−], which Ki is on record?
**A.** 6.7 mM

**Q.** O=S(=O)(O)OOS(=O)(=O)O [S2O8^2−] was tested. Which Ki did it give?
**A.** 6.4 mM

**Q.** Which Ki does the source give for NS(=O)(=O)O [NH2SO3H] here?
**A.** 0.0025 mM

**Q.** With O=[Se](=O)(O)O [SeO4^2−] as the compound, how does the Ki read?
**A.** 3.1 mM

**Q.** How did the Ki turn out when O=S(=O)(O)O [SO4^2−] was run?
**A.** 1.7 mM

**Q.** For N#CO [CNO^−], which Ki is on record?
**A.** 0.58 mM

**Q.** With I [I^−] as the compound, how does the Ki read?
**A.** > 10 mM

**Q.** Which Ki does the source give for [O-][Cl+3]([O-])([O-])O [ClO4^−] here?
**A.** > 100 mM

**Q.** How did the Ki turn out when O=P(O)(O)OP(=O)(O)O [P2O7^2−] was run?
**A.** > 10 mM

**Q.** For O=S(=O)(O)F [FSO3^−], which Ki is on record?
**A.** 0.83 mM

**Q.** For O=[N+]([O-])O [NO3^−], which Ki is on record?
**A.** 2.4 mM

**Q.** How did the Ki turn out when S=C(S)S [CS3^2−] was run?
**A.** 3.1 mM

**Q.** With O=S(=O)(O)NS(=O)(=O)O [NH(SO3)2^2−] as the compound, how does the Ki read?
**A.** 1.5 mM

**Q.** N#CS [SCN^−] was tested. Which Ki did it give?
**A.** 5.7 mM

**Q.** How did the Ki turn out when O=S(O)O [HSO3^−] was run?
**A.** 3.7 mM

**Q.** With [O]=[Re](=[O])(=[O])[OH] [ReO4^−] as the compound, how does the Ki read?
**A.** > 10 mM

**Q.** Which Ki does the source give for N#C[SeH] [SeCN^−] here?
**A.** 3.1 mM

**Q.** Which Ki does the source give for [O]=[V]([OH])([OH])[O][V](=[O])([OH])[OH] [V2O7^2−] here?
**A.** > 10 mM

**Q.** Which Ki does the source give for O=[Te](=O)(O)O [TeO4^2−] here?
**A.** 0.51 mM

**Q.** How did the Ki turn out when NS(N)(=O)=O [NH2SO2NH2] was run?
**A.** 0.011 mM

**Q.** With [O]=[Ru](=[O])(=[O])[OH] [RuO4^−] as the compound, how does the Ki read?
**A.** 9.5 mM

**Q.** With O=NO [NO2^−] as the compound, how does the Ki read?
**A.** 4.9 mM

**Q.** Which Ki does the source give for OB(O)c1ccccc1 [PhB(OH)2] here?
**A.** 0.0028 mM

**Q.** With S [HS^−] as the compound, how does the Ki read?
**A.** 2.7 mM

**Q.** With O=S(=O)(O)C(F)(F)F [CF3SO3^−] as the compound, how does the Ki read?
**A.** > 10 mM
